These results are taken from patent publication US9657033B2, “Tetrahydronaphthyridine and related bicyclic compounds for inhibition of RORγ activity and the treatment of disease” (Merck Sharp & Dohme Corp., priority 2012, dated 2017).

The term EC50 denotes the concentration needed to bring the measured effect to its halfway point.

For assay [1], the target named is T1, RORγ-LBD (Homo sapiens (Human), UniProt P51449). As to the kind of experiment: RORγ-Ligand Binding Domain (LBD) TR-FRET Assay Protocol I. In kind it is biochemical. The conditions noted are these: for EC50: RORγ-LBD lysate from SF9 cells, SRC1-2 peptide; for RORγ inhibition: Protocol I, assay measuring EC50 values less than or equal to 10 μM. As for the experimental part:
Part I—Procedures for RORγ-Ligand Binding Domain TR-FRET Assay Protocol I
Recombinant,HIS-tagged RORγ-LBD was expressed in SF9 cells using a baculovirus expression system. Cells were lysed and the lysate was used as a source for RORγ-LBD for the assay. A 1:80 dilution of RORγ-LBD lysate in assay buffer (25 mM HEPES pH 7.0, 100 mM NaCl, 0.01% Tween, 0.1% BSA) was prepared and 5 μL was added to each well (RORγ-LBD final concentration ˜3 nM). Control wells received lysate from SF9 cells not expressing RORγ-LBD.
Compounds to be tested were diluted to 100× final test concentration in DMSO and further diluted to 4× final test concentration using assay buffer to provide the test compound mixture. An aliquot (5 μL) of the test compound mixture was added to each well.
A 4× stock of biotinylated-LXXLL peptide from SRC1-2 (Biotin-[…]) was prepared in assay buffer and a 5 μL aliquot added to each well (450 nM final concentration). A 4× solution of europium tagged anti-HIS antibody (2 nM final concentration) and APC conjugated streptavidin (60 nM final concentration) were prepared and a 5 μL aliquot added to each well.
The final assay mixture was incubated for 4 hours to overnight, and the fluorescence signal was measured on an Envision plate reader: (Excitation filter=340 nm; APC emission=665 nm; Europium emission=615 nm; dichroic mirror=D400/D630; delay time=100 μs, integration time=200 μs).
EC50 values for test compounds were calculated from the quotient of the fluorescence signal at 665 nm divided by the fluorescence signal at 615 nm using GraphPad Prism software
(In TR-FRET formats the signal depends on donor and acceptor labels being close together.)

Assay [2] addresses T1, RORγ-LBD. Kind of assay: RORγ-Ligand Binding Domain (LBD) TR-FRET Assay Protocol II. The conditions noted are these: purified RORγ-LBD, SRC1 peptide, overnight at 4° C. The format is biochemical. As for the experimental part: Part II—Procedures for RORγ-Ligand Binding Domain TR-FRET Assay Protocol II
HIS-tagged RORγ-LBD protein was expressed in SF9 cells using a baculovirus expression system. The RORγ-LBD protein was purified by […]. Separately, SF9 cells not expressing recombinant protein were lysed in TBS buffer (25 mM Tris, pH 8.0, 150 mM NaCl) under sonication. The lysate was added to the purified RORγ-LBD in a volume equivalent of 0.75 μL lysate (from 30,000 SF9 cells) per 75 femtomol of RORγ-LBD protein. The resulting mixture was diluted in assay buffer (50 mM Tris pH 7.0, 50 mM KCl, 1 mM EDTA, 0.1 mM DTT, 0.01% BSA) to obtain RORγ-LBD protein at a final concentration of 3 nM.
Compounds to be tested were injected to the assay plate using Acoustic Droplet Ejection technology by Echo 550 liquid handler (Labcyte, Calif.).
A stock of biotinylated-LXXLL peptide from coactivator SRC1 (Biotin-[…]) was prepared in assay buffer and added to each well (100 nM final concentration). A solution of Europium tagged anti-HIS antibody (1.25 nM final concentration) and APC-conjugated streptavidin (8 nM final concentration) were also added to each well.
The final assay mixture was incubated overnight at 4° C., and the fluorescence signal was measured on an Envision plate reader: (Excitation filter=340 nm; APC emission=665 nm; Europium emission=615 nm; dichroic mirror=D400/D630; delay time=100 μs, integration time=200 μs). The EC50 value for test compounds was calculated from the quotient of the fluorescence signal at 665 nm divided by the fluorescence signal at 615 nm

T1 sequence (P51449 269-508): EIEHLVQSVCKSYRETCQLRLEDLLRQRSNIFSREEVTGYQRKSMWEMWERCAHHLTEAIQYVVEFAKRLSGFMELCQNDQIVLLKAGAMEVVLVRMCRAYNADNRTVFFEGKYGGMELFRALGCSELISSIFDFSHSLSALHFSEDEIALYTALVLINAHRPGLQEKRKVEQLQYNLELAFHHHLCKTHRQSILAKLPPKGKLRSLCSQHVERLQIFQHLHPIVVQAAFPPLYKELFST

For `O=C(Nc1cc2c(cn1)cnn2S(=O)(=O)c1ccc(F)cc1)c1c(F)cccc1Cl` [Compound 2, 2-chloro-6-fluoro-N-[1-(4-fluorobenzenesulfonyl)-1H-pyrazolo-[4,3-c]pyridin-6-yl]benzamide], the EC50 on RORγ-LBD [1] was 2.4 µM.

As for `N#Cc1cccc(S(=O)(=O)n2ncc3ncc(NC(=O)c4c(F)cccc4Cl)cc32)c1` [Compound 3], at RORγ-LBD [1], the RORγ inhibition entry was “did not provide measurable RORγ inhibition” and the EC50 is 48 µM.

For `O=C(Nc1cc2c(cn1)cnn2S(=O)(=O)c1ccc(F)cc1)c1c(F)cccc1F` [Compound 4], on RORγ-LBD [1], the RORγ inhibition result is reported as “did not provide measurable RORγ inhibition” and it took 50 µM to reach a half-maximal effect (EC50).

`O=C(Nc1cc2c(cn1)cnn2S(=O)(=O)c1ccc(F)cc1)c1c(Cl)cccc1Cl` [Compound 5]: the EC50 at RORγ-LBD [1] is 2.61 µM.

In the case of `O=C(Nc1cc2c(cn1)cnn2S(=O)(=O)c1ccc(F)cc1)c1c(Cl)cccc1C(F)(F)F` [Compound 6], the EC50 on RORγ-LBD [1] was determined as 2.41 µM.

On RORγ-LBD [1], `O=C(Nc1cc2c(cn1)cnn2S(=O)(=O)c1cccc(Cl)c1)c1c(F)cccc1Cl` [Compound 7] registered an EC50 of 6.44 µM.

With `O=C(Nc1cc2c(cn1)cnn2S(=O)(=O)c1cccc(OC(F)F)c1)c1c(F)cccc1Cl` [Compound 8], the concentration for a half-maximal effect (EC50) on RORγ-LBD [1] was 1.06 µM.

The compound `CC(C)(C)c1cccc(S(=O)(=O)n2ncc3cnc(NC(=O)c4c(F)cccc4Cl)cc32)c1` [Compound 9] yielded a half-maximal effective concentration (EC50) at RORγ-LBD [1] of 3.52 µM. This EC50 is about 3.3-fold higher than that of the compound before.

`Cc1cccc(S(=O)(=O)N2CC(N)COc3ncc(NC(=O)C(F)(F)F)cc32)c1` (centres unmarked) [Compound 71, N-[7-amino-5-(toluene-3-sulfonyl)-5,6,7,8-tetrahydro-9-oxa-1,5-diaza-benzocyclohepten-3-yl]-2,2,2-trifluoro-acetamide] came in with a concentration giving a half-maximal response (EC50) on RORγ-LBD [2] of 13 nM.

On RORγ-LBD [2], `Cc1cccc(S(=O)(=O)N2CC(N)COc3ncc(NC(=O)c4c(Cl)cccc4Cl)cc32)c1` (centres unmarked) [Compound 74, N-[7-amino-5-(toluene-3-sulfonyl)-5,6,7,8-tetrahydro-9-oxa-1,5-diaza-benzocyclohepten-3-yl]-2,6-dichloro-benzamide] displayed an EC50 of 174 nM.

The compound `CC(=O)NC1COc2ncc(NC(=O)c3c(Cl)cccc3Cl)cc2N(S(=O)(=O)c2cccc(C)c2)C1` (centres unmarked) [Compound 75, N-[7-acetylamino-5-(toluene-3-sulfonyl)-5,6,7,8-tetrahydro-9-oxa-1,5-diaza-benzocyclohepten-3-yl]-2,6-dichloro-benzamide] showed an EC50 at RORγ-LBD [2] of 291 nM.

For the compound `Cc1cccc(S(=O)(=O)N2CC(N(C)C)COc3ncc(NC(=O)c4c(Cl)cccc4Cl)cc32)c1` (centres unmarked) [Compound 76, 2,6-dichloro-N-[7-dimethylamino-5-(toluene-3-sulfonyl)-5,6,7,8-tetrahydro-9-oxa-1,5-diaza-benzocyclohepten-3-yl]-benzamide], a half-maximal response at RORγ-LBD [2] (EC50) required 98 nM.

Consider `CCNC1Cc2ncc(NC(=O)c3c(Cl)cccc3Cl)cc2N(S(=O)(=O)c2cccc(C)c2)C1` (centres unmarked) [Compound 77], for which, at RORγ-LBD [2], the EC50 came out at 553 nM.

Compound `CCN(CC)[C@H]1Cc2ncc(NC(=O)c3c(Cl)cccc3Cl)cc2N(S(=O)(=O)c2cccc(C)c2)C1` [Compound 78] yielded an EC50 at RORγ-LBD [2] of 25 nM. This EC50 lies about 22-fold lower than the previous one.

Compound `CCN(CC)[C@@H]1Cc2ncc(NC(=O)c3c(Cl)cccc3Cl)cc2N(S(=O)(=O)c2cccc(C)c2)C1` [Compound 79] showed a concentration for a half-maximal effect (EC50) at RORγ-LBD [2] of 24 nM.

Turning to `O=C(Nc1ccc2c(c1)N(S(=O)(=O)c1cccc(Cl)c1)C[C@H](CN1CCCC1=O)O2)c1c(Cl)cccc1Cl` [Compound 80, 2,6-dichloro-N-[(S)-4-(3-chloro-benzenesulfonyl)-2-(2-oxopyrrolidin-1-ylmethyl)-3,4-dihydro-2H-benzo[1,4]oxazin-6-yl]-benzamide], it took 26 nM to reach a half-maximal effect on RORγ-LBD [2] (EC50).

`O=C(Nc1cnc2c(c1)N(S(=O)(=O)c1cccc(C(F)(F)F)c1)C[C@@H](N1CCCC1=O)C2)c1c(Cl)cccc1Cl` [Compound 81] gave a half-maximal effective concentration (EC50) at RORγ-LBD [2] of 35 nM.

With `O=C(Nc1cnc2c(c1)N(S(=O)(=O)c1cccc(C(F)(F)F)c1)C[C@H](N1CCCC1=O)C2)c1c(Cl)cccc1Cl` [Compound 82], it took 12 nM to reach a half-maximal effect on RORγ-LBD [2] (EC50).

As to `O=C(Nc1cnc2c(c1)N(S(=O)(=O)c1cccc(Cl)c1)C[C@H](CN1C(=O)COC1=O)O2)c1c(Cl)cccc1Cl` [Compound 85], the EC50 at RORγ-LBD [2] was 20 nM.

Take `CN1CC(=O)N(C[C@H]2CN(S(=O)(=O)c3cccc(Cl)c3)c3cc(NC(=O)c4c(Cl)cccc4Cl)cnc3O2)C1=O` [Compound 86, (S)-2,6-dichloro-N-(1-((3-chlorophenyl)sulfonyl)-3-((3-methyl-2,5-dioxoimidazolidin-1-yl)methyl)-2,3-dihydro-1H-pyrido[2,3-b][1,4]oxazin-7-yl)benzamide]: the concentration for a half-maximal effect (EC50) at RORγ-LBD [2] was 10 nM.

For the compound `CN1CCN(C[C@H]2CN(S(=O)(=O)c3cccc(Cl)c3)c3cc(NC(=O)c4c(Cl)cccc4Cl)cnc3O2)CC1=O` [Compound 87, (S)-2,6-dichloro-N-(1-((3-chlorophenyl)sulfonyl)-3-((4-methyl-3-oxopiperazin-1-yl)methyl)-2,3-dihydro-1H-pyrido[2,3-b][1,4]oxazin-7-yl)benzamide], the EC50 at RORγ-LBD [2] worked out at 52 nM.

Regarding `CN(C)C[C@H]1CN(S(=O)(=O)c2cccc(Cl)c2)c2cc(NC(=O)c3c(Cl)cccc3Cl)cnc2O1` [Compound 88], the half-maximal effective concentration (EC50) on RORγ-LBD [2] amounted to 42 nM.

On to `O=C(Nc1cnc2c(c1)N(S(=O)(=O)c1cccc(Cl)c1)C[C@H](CN1CC[C@@H](O)C1)O2)c1c(Cl)cccc1Cl` [Compound 89], for which the half-maximal effective concentration (EC50) on RORγ-LBD [2] turned out to be 32 nM.

In the case of `O=C(Nc1cnc2c(c1)N(S(=O)(=O)c1cccc(Cl)c1)C[C@H](CN1CCOCC1)O2)c1c(Cl)cccc1Cl` [Compound 90], at RORγ-LBD [2], a half-maximal response (EC50) required 30 nM.

In turn, `CN1CCN(C[C@H]2CN(S(=O)(=O)c3cccc(Cl)c3)c3cc(NC(=O)c4c(Cl)cccc4Cl)cnc3O2)CC1` [Compound 91] yielded an EC50 on RORγ-LBD [2] of 1330 nM. This EC50 is about 44-fold higher than that of the compound before.

Compound `Cc1nn(C(F)F)cc1S(=O)(=O)N1C[C@H](CO)Cc2ncc(NC(=O)[C@@H](C)C(C)(C)C)cc21` [Compound 92, (S)-N-((R)-5-((1-(difluoromethyl)-3-methyl-1H-pyrazol-4-yl)sulfonyl)-7-(hydroxymethyl)-5,6,7,8-tetrahydro-1,5-naphthyridin-3-yl)-2,3,3-trimethylbutanamide] gave an EC50 on RORγ-LBD [2] of 10000 nM. This EC50 is about 7.5-fold higher than that of the compound before.

On to `Cc1cccc(S(=O)(=O)N2CC(CO)Cc3ncc(NC(=O)c4c(Cl)cccc4Cl)cc32)c1` (centres unmarked) [Compound 94, 2,6-dichloro-N-(7-(hydroxymethyl)-5-(m-tolylsulfonyl)-5,6,7,8-tetrahydro-1,5-naphthyridin-3-yl)benzamide], for which the 50% effective concentration (EC50) on RORγ-LBD [2] worked out at 20 nM.

`Cc1nn(C(F)F)cc1S(=O)(=O)N1C[C@H](CN2CC[C@@H](O)C2)Cc2ncc(NC(=O)[C@@H](C)C(C)(C)C)cc21` [Compound 95, (S)-N-((S)-5-((1-(difluoromethyl)-3-methyl-1H-pyrazol-4-yl)sulfonyl)-7-(((R)-3-hydroxypyrrolidin-1-yl)methyl)-5,6,7,8-tetrahydro-1,5-naphthyridin-3-yl)-2,3,3-trimethylbutanamide] gave a half-maximal effective concentration (EC50) on RORγ-LBD [2] of 4100 nM.

For the compound `Cc1nn(C(F)F)cc1S(=O)(=O)N1C[C@@H](CN2CC[C@@H](O)C2)Cc2ncc(NC(=O)[C@@H](C)C(C)(C)C)cc21` [Compound 96, (S)-N-((R)-5-((1-(difluoromethyl)-3-methyl-1H-pyrazol-4-yl)sulfonyl)-7-(((R)-3-hydroxypyrrolidin-1-yl)methyl)-5,6,7,8-tetrahydro-1,5-naphthyridin-3-yl)-2,3,3-trimethylbutanamide], the EC50 on RORγ-LBD [2] amounted to 168 nM. Against the preceding compound, the EC50 is about 24-fold lower.

At RORγ-LBD [2], `O=C(Nc1cnc2c(c1)N(S(=O)(=O)c1cccc(C(F)(F)F)c1)C[C@@H](N1CCOC1=O)C2)c1c(Cl)cccc1Cl` [Compound 97, (S)-2,6-dichloro-N-(7-(2-oxooxazolidin-3-yl)-5-((3-(trifluoromethyl)phenyl)sulfonyl)-5,6,7,8-tetrahydro-1,5-naphthyridin-3-yl)benzamide] yielded an EC50 of 42 nM. Compared with the last compound, the EC50 is about 4-fold lower.
